Reference: ChEMBL document CHEMBL1201862, “PubChem BioAssay data set” (2004)
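A five-concentration, 48-hour dose response in 96-well plates underlies each endpoint, interpolated linearly between surrounding concentrations. At the GI50, growth is halved.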 Active and inactive are the calls of the source. Rule as the data show it: active = GI50 up to about 1.1 µM and inactive = higher.

Assays:
Assay in all cases: NCI-60 cell line screen, 48 h
OVCAR-5 = test system: OVCAR-5
SR = test system: SR
786-0 = test system: 786-0
MDA-MB-231 = test system: MDA-MB-231
SK-MEL-28 = test system: SK-MEL-28
OVCAR-4 = test system: OVCAR-4
SF-295 = test system: SF-295
SK-MEL-5 = test system: SK-MEL-5
KM12 = test system: KM12
UACC-62 = test system: UACC-62
RXF 393 = test system: RXF 393
HCT-116 = test system: HCT-116
TK-10 = test system: TK-10
SF-539 = test system: SF-539
A498 = test system: A498
OVCAR-8 = test system: OVCAR-8
Hs-578T = test system: Hs-578T
MCF7 = test system: MCF7
EKVX = test system: EKVX
UACC-257 = test system: UACC-257

Measured: GI50

Cc1cc(=O)n2nc(SCc3ccccc3)sc2n1
inactive: OVCAR-5 > 100 µM | SR > 100 µM | 786-0 > 100 µM | MDA-MB-231 > 100 µM | SK-MEL-28 > 100 µM | OVCAR-4 > 100 µM | SF-295 > 100 µM | SK-MEL-5 43.2 µM | KM12 > 100 µM | UACC-62 28.4 µM | RXF 393 60.3 µM | HCT-116 > 100 µM | TK-10 34.4 µM | SF-539 > 100 µM | A498 > 100 µM | OVCAR-8 > 100 µM | Hs-578T 25.4 µM | MCF7 > 100 µM

O=c1c2ccccc2sc2cccc(NCCCN3CCN(CCCNc4cccc5sc6ccccc6c(=O)c45)CC3)c12
inactive: OVCAR-5 > 100 µM | SR > 100 µM | EKVX > 100 µM | 786-0 > 100 µM | MDA-MB-231 > 100 µM | SK-MEL-28 > 100 µM | OVCAR-4 > 100 µM | SF-295 > 100 µM | SK-MEL-5 > 100 µM | KM12 > 100 µM | UACC-62 64.7 µM | RXF 393 > 100 µM | HCT-116 > 100 µM | UACC-257 > 100 µM | TK-10 > 100 µM | SF-539 > 100 µM | A498 > 100 µM | Hs-578T 52.7 µM | MCF7 > 100 µM

CC1=NN(c2cccc(Cl)c2)C2(SCC(=O)N2c2nc3ccccc3s2)/C1=C\c1ccc(Cl)cc1 (stereo not drawn)
inactive: OVCAR-5 20.2 µM | SR 2.81 µM | EKVX 33.5 µM | 786-0 21.6 µM | MDA-MB-231 25.5 µM | SK-MEL-28 24.5 µM | OVCAR-4 17.3 µM | SF-295 17 µM | SK-MEL-5 13.8 µM | KM12 15.4 µM | RXF 393 20.4 µM | HCT-116 16.3 µM | UACC-257 21.6 µM | TK-10 30.2 µM | SF-539 26.2 µM | A498 17.3 µM | OVCAR-8 18.9 µM | Hs-578T 19.4 µM | MCF7 22.2 µM

COc1ccc(OC)c(-c2cc(=O)c3c(OC)c(OC)c(OC)c(OC)c3o2)c1
inactive: OVCAR-5 49.1 µM | SR 6.17 µM | EKVX 33 µM | 786-0 27.4 µM | MDA-MB-231 40.2 µM | SK-MEL-28 40.1 µM | OVCAR-4 20 µM | SF-295 18.7 µM | SK-MEL-5 12.4 µM | UACC-62 24.3 µM | RXF 393 22 µM | HCT-116 27.6 µM | UACC-257 36.2 µM | TK-10 37.9 µM | SF-539 41.1 µM | A498 36.1 µM | OVCAR-8 25.7 µM | Hs-578T 37.6 µM | MCF7 14.5 µM

C=CCC1(O)c2cccc(O)c2C(=O)c2c(O)cccc21
inactive: OVCAR-5 35.2 µM | SR 10.9 µM | EKVX 27.5 µM | 786-0 35.8 µM | MDA-MB-231 33.5 µM | SK-MEL-28 31.7 µM | OVCAR-4 28.4 µM | SF-295 27.1 µM | SK-MEL-5 29.4 µM | KM12 24.4 µM | RXF 393 15.9 µM | HCT-116 23.1 µM | UACC-257 23 µM | TK-10 32.7 µM | SF-539 57.8 µM | A498 29 µM | OVCAR-8 32.2 µM | Hs-578T 24.4 µM | MCF7 30.1 µM

Cc1cn(CCCCOC(=O)NC(CCCNC(=N)N)C(=O)O)c(=O)[nH]c1=O (stereo not drawn)
inactive: OVCAR-5 > 100 µM | SR > 100 µM | EKVX > 100 µM | 786-0 > 100 µM | MDA-MB-231 > 100 µM | SK-MEL-28 > 100 µM | OVCAR-4 > 100 µM | SF-295 > 100 µM | KM12 > 100 µM | UACC-62 > 100 µM | RXF 393 > 100 µM | HCT-116 > 100 µM | UACC-257 > 100 µM | TK-10 > 100 µM | SF-539 > 100 µM | A498 > 100 µM | OVCAR-8 > 100 µM | Hs-578T > 100 µM | MCF7 > 100 µM
